For data set [1], the system named is CHIKV. Put plainly: CPE reduction assay, CHIKV in Vero cells. It is filed as cell-based, chikungunya virus. The following applies: read-out: EC50 CHIKV.
Data set [2] deals with CHIKV. Put plainly: CPE reduction assay, CHIKV in skin fibroblasts. It is filed as cell-based, chikungunya virus. The note with it: read-out: EC50 CHIKV.
The subject of data set [3] is SINV HRsp. As to the kind of experiment: microbe, parasite or virus in culture. It is filed as cell-based. The following applies: Sindbis virus, Vero, 72 h, read-out: EC50 SINV HRsp.
Data set [4] has as its system VEEV TC83. Put plainly: microbe, parasite or virus in culture. It is filed as cell-based, Venezuelan Equine Encephalitis virus. The note with it: for EC50: Venezuelan equine encephalitis virus, Huh-7, 72 h, read-out: EC50 VEEV TC83.
Data set [5] deals with alphaviruses (CHIKV, SFV, SINV-HRsp, SINV-AR86, VEEV TC83 and RRV). Put plainly: microbe, parasite or virus in culture. The class given is cell-based.
Data set [6] relates to SFV. Put plainly: microbe, parasite or virus in culture. The class given is cell-based. The note with it: Semliki Forest virus, Vero, 72 h, read-out: EC50 SFV.
The test system of data set [7] is alphaviruses. As to the kind of experiment: organism not typed. It is filed as cell-based.
Data set [8] can be described thus: in vitro. The note with it: human.
The test system of data set [9] is RRV. As to the kind of experiment: microbe, parasite or virus in culture. The following applies: Ross River virus, Vero, 72 h, read-out: EC50 RRV. The class given is cell-based.
The subject of data set [10] is RRV. As to the kind of experiment: microbe, parasite or virus in culture. It is filed as cell-based. The note with it: Ross River virus, Skin fibroblast, 72 h, read-out: EC50 RRV.
In data set [11] the test system is SINV HRsp. As to the kind of experiment: microbe, parasite or virus in culture. It is filed as cell-based, Sindbis virus. The following applies: for EC50: Sindbis virus, Huh-7, 72 h, read-out: EC50 SINV HRsp.
For data set [12], the system named is SFV. As to the kind of experiment: microbe, parasite or virus in culture. It is filed as cell-based. The following applies: Semliki Forest virus, Skin fibroblast, 72 h, read-out: EC50 SFV.
For data set [13], the system named is SINV AR86. As to the kind of experiment: microbe, parasite or virus in culture. The note with it: for EC50: Sindbis virus, Huh-7, 72 h, read-out: EC50 SINV AR86. The class given is cell-based, Sindbis virus.
The test system of data set [14] is VEEV TC83. As to the kind of experiment: microbe, parasite or virus in culture. The following applies: Venezuelan equine encephalitis virus, Vero, 72 h, read-out: EC50 VEEV TC83. The class given is cell-based.
Data set [15] can be described thus: in vitro. The following applies: human. This is another data set of the same source.
Data set [16] concerns SINV AR86. As to the kind of experiment: microbe, parasite or virus in culture. The following applies: Sindbis virus, Vero, 72 h, read-out: EC50 SINV AR86. The class given is cell-based.
Data set [17] in a line: in vitro. The note with it: African green monkey.
For data set [18], the system named is CHIKV. Put plainly: Infectious virus titres in CHIKV-infected AG129 mice. The class given is in vivo.
In data set [19] the test system is alphaviruses. The class given is cell-based.
The conditions of data set [20]: mouse, in vivo.
In data set [21] the test system is CHIKV. Put plainly: CHIKV-induced foot swelling in AG129 mice. It is filed as in vivo.
The test system of data set [22] is CHIKV. As to the kind of experiment: Viral RNA levels in CHIKV-infected AG129 mice. It is filed as in vivo. The note with it: day 3 pi.
Data set [23] deals with CHIKV. The note with it: SOF 40-80 mg/kg/day; cited from earlier work.
The test system of data set [24] is CHIKV. The following applies: SOF 20 mg/kg/day; cited from earlier work.
Setting [25] is: Chikungunya virus, Skin fibroblast, 72 h.
[26] abbreviates: MPV 10, 50, 100 mg/kg, day 3 pi.
Setting [27] is: combination study, day 2 pi, MPV 10 mg/kg, SOF 80 mg/kg or both (80 + 10 mg/kg), oral.

Molecules are shown by their SMILES. Where two headings read alike, the source gives them in different places.

A word on the EC50: it is the concentration that produces a half-maximal response. Turning to `O=c1nc(NO)ccn1[C@@H]1O[C@H](CO)[C@@H](O)[C@H]1O` [EIDD-1931], the CC50 was 140 ± 19 µM in the data set with Human skin fibroblasts, above 200 µM with Vero cells and 22 ± 11 µM in the data set with Huh7 cells. Also, the concentration for a half-maximal effect (EC50) in the data set with CHIKV [1] (Vero cells, 72 h pi, MTS) was determined as 0.7 µM; in the data set on CHIKV [2] (Skin fibroblasts, 72 h pi, MTS) it was 0.9 µM.

In the case of `NC(=O)c1nc(F)c[nH]c1=O` [FAV, favipiravir], the EC50 with SINV HRsp [3] is 52 ± 18 µM; in the data set on VEEV TC83 [4], 112 µM; in data set [5] (Chikungunya virus, Vero, read-out: EC50 values against all alphaviruses tested), 13 to 52 µM; with SFV [6], 33 ± 6 µM; in the data set on RRV [9], 15 ± 12 µM; in the data set with RRV [10] it was above 200 µM. Also, the EC50 in the data set with SINV HRsp [11] worked out at 22 ± 7 µM; with CHIKV [1] (Chikungunya virus, Vero, 72 h), 35 ± 14 µM; in the data set with SFV [12] it was 382 µM; in the data set with SINV AR86 [13], 29 ± 18 µM; in the data set on VEEV TC83 [14], 13 µM; in the data set on CHIKV [2] (setting [25]), 143 ± 5 µM. The EC50 with SINV AR86 [16] worked out at 17 ± 2 µM. For the same compound, the “antiviral activity against VEEV TC83 (in words)” value in the data set with VEEV TC83 [4] was “active”. The “antiviral efficacy (in words)” value in the data set on alphaviruses [7] is “only effective against CHIKV”. Besides, the CC50 was above 500 µM in the data set “in vitro [8]”, above 500 µM in the data set “in vitro [15]” and 374 ± 17 µM in “in vitro [17]”. In addition, the “antiviral activity against SINV HRsp (in words)” value in the data set on SINV HRsp [11] is given as “active”. Also, the “antiviral activity against SINV AR86 (in words)” value in the data set on SINV AR86 [13] is “active”.

In the case of `CC(C)C(=O)OC[C@H]1O[C@@H](n2ccc(NO)nc2=O)[C@H](O)[C@@H]1O` [MPV, Molnupiravir], the “infectious virus in contralateral ankle (in words)” value in the data set on CHIKV [18] (setting [26]) is recorded as “dose-dependent decreases”. In addition, the “infectious virus in serum (in words)” value with CHIKV [18] (setting [26]) is on record as “dose-dependent decreases”. Also, the “infectious CHIKV in serum (in words)” value with CHIKV [18] (MPV all doses (10, 50, 100 mg/kg), day 2 pi) is reported as “suppressed infectious CHIKV”. Besides, the “reduction of infectious virus titres in serum” value in the data set on CHIKV [18] (combination study, day 3 pi, MPV 10 mg/kg, SOF 80 mg/kg or both) is recorded as 1 log10 TCID50/mL. In addition, the “infectious virus in left ankle (in words)” value with CHIKV [18] (highest dose of MPV, day 3 pi) is listed as “significant decreases”. Besides, the “EC50 values against all alphaviruses tested (in words)” value in the data set on alphaviruses [7] was “sub to low single-digit micromolar range”. Also, in the data set with alphaviruses [19], the “EC50 values, pan-alphavirus (in words)” value was “sub to low single-digit micromolar range”. For the same compound, the tolerability entry in [20] was “well-tolerated”. The “effect on foot swelling (in words)” value in the data set with CHIKV [21] (MPV 10 mg/kg oral twice daily, dose-response study) is reported as “did not significantly improve swelling”. The “reduction of foot swelling compared to vehicle” value in the data set with CHIKV [21] (MPV 50 mg/kg oral twice daily, day 2 pi) amounted to 22%; in the data set on CHIKV [21] (MPV 50 mg/kg oral twice daily, day 3 pi) it was 55%; in the data set with CHIKV [21] (MPV 100 mg/kg oral twice daily, day 2 pi), 20%; in the data set with CHIKV [21] (MPV 100 mg/kg oral twice daily, day 3 pi), 62%; in the data set on CHIKV [21] (setting [27]), 19%. For the same compound, the “viral RNA in contralateral ankle (in words)” value in the data set on CHIKV [22] (MPV 10, 50, 100 mg/kg) is recorded as “dose-dependent decreases”. In addition, in the data set with CHIKV [22] (MPV 10, 50, 100 mg/kg), the “viral RNA in serum (in words)” value was “significantly reduced”. For the same compound, the “viral RNA in left ankle (in words)” value in the data set with CHIKV [22] (highest dose of MPV) is reported as “significant decreases”.

Take `CC(C)OC(=O)[C@H](C)N[P@](=O)(OC[C@H]1O[C@@H](n2ccc(=O)[nH]c2=O)[C@](C)(F)[C@@H]1O)Oc1ccccc1` [SOF, Sofosbuvir]: the survival result in the data set on CHIKV [23] is listed as “improved survival”. Besides, the EC50 was above 100 µM with SINV HRsp [3]; above 50 µM in the data set on VEEV TC83 [4]; above 100 µM in the data set on SFV [6]; 12 to 20 µM in the data set with alphaviruses [7] (Skin fibroblast, read-out: EC50 values against all alphaviruses tested); above 100 µM with RRV [9]; 20 ± 7 µM in the data set on RRV [10]. The EC50 in the data set with SINV HRsp [11] was 44 ± 3 µM; in the data set on CHIKV [1] (Chikungunya virus, Vero, 72 h) it was above 100 µM; in the data set on SFV [12], 17 ± 3 µM; with SINV AR86 [13], above 50 µM; with VEEV TC83 [14], above 100 µM; in the data set on CHIKV [2] (setting [25]), 15 ± 3 µM. The “antiviral activity against VEEV TC83 (in words)” value in the data set with VEEV TC83 [4] is listed as “did not inhibit”. The antiviral activity result in [5] is on record as “no antiviral activity”. Also, the values for the CC50 in the data set “in vitro [8]”, in the data set “in vitro [15]” and in the data set “in vitro [17]” were 271 ± 95 µM, 280 ± 13 µM and 350 ± 14 µM, respectively. The “effect on foot swelling (in words)” value in the data set with CHIKV [21] (SOF 40 and 80 mg/kg oral twice daily, over the course of the infection) is given as “did not significantly improve”. The “reduction of foot swelling compared to vehicle” value in the data set with CHIKV [21] (setting [27]) is on record as 25%; in the data set on CHIKV [21] (combination study, day 3 pi, MPV 10 mg/kg, SOF 80 mg/kg or both (80 + 10 mg/kg), oral), “no reduction”. For the same compound, the “antiviral activity against SINV AR86 (in words)” value in the data set on SINV AR86 [13] was “did not inhibit”. Further, the foot swelling result in the data set on CHIKV [24] is given as “slightly reduced”. For the same compound, the “reduction of viral RNA in the joint” value in the data set with CHIKV [24] is given as below 1 log gc/ml.
